# Values quoted from earlier work, collected in patent US11590090B2, “Acetaminophen formulation with protection against toxic effects of overdose” (Anzen Pharmaceuticals, LLC, priority 2019, dated 2023).
# System: cytochrome P450 mixed-function oxygenase system
# Settings: upon ingestion
smiles,measurement,value
CC(=O)Nc1ccc(O)cc1 [acetaminophen],Fraction metabolized in the liver by cytochrome P450 to NAPQI,about 5%
